Results reported in US9540314B2, “N-cycloalkyl-N-[(cycloalkenylphenyl)methylene]-(thio) carboxamide derivatives” (BAYER INTELLECTUAL PROPERTY GMBH, priority 2012, dated 2017).

Key:
Sphaerotheca fuliginea = assay: In vivo preventive test on Sphaerotheca fuliginea (powdery mildew on cucurbits); settings: 500 ppm, gherkin plants, grading 12 days after contamination
Protocol: The active ingredients tested are prepared by homogenization in a mixture of acetone/tween/DMSO and then diluted with water to obtain the desired active material concentration.
Gherkin plants (“Vert petit de Paris” variety), sown in starter cups on a 50/50 peat soil-pozzolana substrate and grown at 24° C., are treated at the Z11 cotyledon stage by spraying with the active ingredient prepared as described above. Plants, used as controls, are treated with the mixture of acetone/tween/DMSO/water not containing the active material.
After 24 hours, the plants are contaminated by spraying the cotyledons with an aqueous suspension of Sphaerotheca fuliginea spores (100 000 spores per mL). The spores are collected from infected plants. The contaminated gherkin plants are incubated at about 20° C. and at 70-80% relative humidity.
Grading (% of efficacy) is carried out 12 days after the contamination, in comparison with the control plants.
Under these conditions, good (at least 70%) to total protection is observed at a dose of 500 ppm of active ingredient with the following compounds from table A: […]

Pyrenophora teres = assay: In vivo preventive test on Pyrenophora teres (barley); settings: 500 ppm of active ingredient; barley plants, preventive spray; grading 14 days after contamination
Procedure, shortened: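 Barley plants ('Plaisant', 1-leaf stage) were sprayed with compound in acetone/tween/DMSO/water, then inoculated 24 h later with P. teres spores (12 000 spores per mL). Plants were held 48 h at 20° C./100% RH, then 12 days at 70-80% RH. Efficacy (%) was graded 14 days after inoculation relative to solvent-treated controls.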

Cc1nn(C)c(F)c1C(=O)N(C1CC1)C(C)c1ccccc1C1=CCCC1 (racemic) [I.1]
Efficacy (Sphaerotheca fuliginea): 100%
Efficacy (Pyrenophora teres): 97%
